Experimental data reported in patent publication US20250108119A1, “NOVEL STEROID PAYLOADS, STEROID LINKERS, ADCs CONTAINING AND USE THEREOF” (IMMUNEXT, INC., priority 2021, published 2025).
Entries after “also recorded” stand apart in the source; their conditions may differ.

Tests used:
[1] = Plasma corticosterone after repeated treatment; assay type: in vivo, hVISTA KI mice; conditions: Dex 2 or 0.2 mg/Kg daily for 4 days; INX201J 10 or 3 mg/Kg (0.2 or 0.06 mg/Kg of payload) on days 1, 3 and 4
Procedure: On day 5, mice were bled and their corticosterone levels assessed by ELISA.
The experiment was performed in female hVISTA KI mice. […] A control group was included that received daily PBS injections. On day 5, mice were bled and their plasma corticosterone levels assessed by ELISA.
The ELISA was conducted following the manufacturer's included protocol using Arbor Assays (cat #K014-H5) Corticosterone 5 pack ELISA Kit.

[2] = Payload accumulation in cynomolgus tissues (LC-MS/MS); conditions: single i.v.; INX234P 10 mg/kg, dexamethasone 2 mg/kg
[3] = tested on: steroid responsive genes in bone (Fkpb5, RANKL, ddit4, Fam107a); assay: Steroid responsive gene transcription in bone (RNAseq); assay type: in vivo, mouse; conditions: Dex 2 mg/Kg i.p., 2h
Description: In the figure Fkpb5 is shown on the left, RANKL the middle left, ddit4 the middle right and Fam107a on the extreme right.

[4] = tested on: transferred naïve CD4 T cells from hVISTA KI mice; assay: T cell transfer colitis model; assay type: in vivo, Rag1-/- mice
Procedure: After >21 days, animals slowly start to lose weight and decreases in circulating naïve T cells are observed. In this model, the ADC targets only the transferred cells while the free GC can act on both transferred and host cells.
In EXPERIMENT 1, mice were treated with INX234P at 10 mg/Kg starting on day 0 and then once a week. […] In EXPERIMENT 1 treatment was initiated on day 0 (prophylactic) and terminated on day 61, whereas in EXPERIMENT 2 treatment was initiated on day 21 (or therapeutic) and remains ongoing at the time of this filing.
In both experiments, all treatments were administered once a week.
For EXPERIMENT 1, INX234P treatment was initiated on day 0 (or prophylactic) after naïve CD4 T cell transfer and terminated on day 61.
Naïve CD4 T cells were isolated from hVISTA KI spleen using an EasySep™ Mouse Naïve CD4+ T cell Isolation kit from StemCell (catalog #19765) following manufacturer instruction.
Following the protocol of Ostanin et al (2008), […] naïve CD45RB+, CD4+ T cells were injected i.p. on day 0
10 ml of antibody cocktail (see table on the right) was directly added to […] of blood. After 30 min incubation at room temperature (RT), 600 ml BD FACS lysis buffer was added to the sample. After 30 min incubation at RT, samples were spun at 550 rcf for 5 min, washed once in PBS, and then resuspended in a fixed volume of PBS. […]

[5] = tested on: steroid responsive genes in bone; assay: RNAseq of mouse bones after treatment; conditions: INX231P 10 mg/Kg i.p. 20h (hVISTA KI); Dex 2 mg/Kg 2h (C57BI/6)

C[C@@H]1C[C@H]2[C@@H]3CCC4=CC(=O)C=C[C@]4(C)[C@@]3(F)[C@@H](O)C[C@]2(C)[C@@]1(O)C(=O)CO [Dex, dexamethasone]
basal plasma corticosterone levels on day 5 [1]: Dex at 2 mg/Kg dramatically decreased basal corticosterone levels; also recorded: only limited though significant impact at 0.2 mg/Kg | accumulated compound in tissues at 24h (ng of compound/g of tissue) [2]: little accumulated free dexamethasone at 24h in any tissue | impact on steroid responsive genes in bone [3]: significantly impacted | mice that had to be sacrificed ([4]; EXPERIMENT 1: high Dex (2 mg/Kg), 2 out of 10): 20% | median survival ([4]; EXPERIMENT 1: once a week day 0 to day 61, unconjugated INX234 10 mg/Kg, low Dex 0.2 mg/Kg): 72.5 days | FKBP5 in bone (RNAseq) [5]: robust FKBP5 induction
